Biological target: T1, EGFR (Homo sapiens, UniProt P00533)
T1 construct: endogenous in cells; host or cells: A431 cells (lysate, captured with SUMO1 anti-EGFR antibody)
Assay: Biochemical EGFR Assay
Design: concentration or dose not given beside the values
Method in brief: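 EGFR from A431 lysate was captured on anti-EGFR-coated wells and preincubated 30 min with compound (diluted 1:10 in TBS) at room temperature. After ATP/MnCl2 phosphorylation for 5 min, the reaction was stopped with EDTA. Phosphotyrosine was detected by ELISA (anti-phosphotyrosine, peroxidase conjugate, ABTS) at 410 nm.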

T1 sequence (P00533 25-1210): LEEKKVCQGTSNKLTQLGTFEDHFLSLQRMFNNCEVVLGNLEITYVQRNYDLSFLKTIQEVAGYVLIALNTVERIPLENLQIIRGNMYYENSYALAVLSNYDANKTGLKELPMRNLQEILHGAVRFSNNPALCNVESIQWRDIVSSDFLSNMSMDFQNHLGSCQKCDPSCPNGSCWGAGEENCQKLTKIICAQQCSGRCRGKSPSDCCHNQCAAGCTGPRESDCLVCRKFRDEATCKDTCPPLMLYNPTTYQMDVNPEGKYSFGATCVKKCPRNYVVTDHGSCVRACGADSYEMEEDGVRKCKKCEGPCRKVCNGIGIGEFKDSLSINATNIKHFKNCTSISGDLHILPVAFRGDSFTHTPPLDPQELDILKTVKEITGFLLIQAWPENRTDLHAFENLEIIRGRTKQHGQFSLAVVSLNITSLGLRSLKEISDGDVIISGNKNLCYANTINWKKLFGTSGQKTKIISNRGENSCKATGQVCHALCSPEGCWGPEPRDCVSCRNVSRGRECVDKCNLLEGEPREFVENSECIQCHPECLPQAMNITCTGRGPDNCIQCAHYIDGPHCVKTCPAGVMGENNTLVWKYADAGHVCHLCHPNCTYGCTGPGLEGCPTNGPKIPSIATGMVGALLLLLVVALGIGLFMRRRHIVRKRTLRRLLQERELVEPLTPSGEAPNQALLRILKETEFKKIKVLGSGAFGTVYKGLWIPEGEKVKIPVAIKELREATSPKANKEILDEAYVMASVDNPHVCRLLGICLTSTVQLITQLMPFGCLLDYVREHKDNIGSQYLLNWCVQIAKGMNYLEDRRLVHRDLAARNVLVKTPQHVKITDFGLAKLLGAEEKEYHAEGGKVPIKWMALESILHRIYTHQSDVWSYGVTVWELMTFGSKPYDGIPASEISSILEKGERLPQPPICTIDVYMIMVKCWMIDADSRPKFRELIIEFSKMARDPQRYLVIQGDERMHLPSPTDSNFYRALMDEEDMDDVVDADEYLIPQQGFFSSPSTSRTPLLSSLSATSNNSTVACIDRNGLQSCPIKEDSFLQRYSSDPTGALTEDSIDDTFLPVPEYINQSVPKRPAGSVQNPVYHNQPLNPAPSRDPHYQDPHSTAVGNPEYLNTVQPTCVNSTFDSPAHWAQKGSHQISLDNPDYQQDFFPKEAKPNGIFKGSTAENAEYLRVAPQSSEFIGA

| SMILES | Biochem EGFR % Inhibition (P.167) [%] |
| --- | --- |
| Cc1c(O)ccc(C=C2C(=O)Nc3c(Br)cc(Br)c(C)c32)c1O [10718/H09] | 34.2 |
| Cc1c(Br)cc(Br)c2c1C(=Cc1ccco1)C(=O)N2 [10718/H10] | −5.7 |
| Cc1c(Br)cc(Br)c2c1C(=Cc1ccc([N+](=O)[O-])o1)C(=O)N2 [10718/H11] | 4.4 |
| CCOc1ccc(C=C2C(=O)Nc3c(Br)cc(Br)c(C)c32)cc1OC [10719/H02] | 43.9 |
| Cc1c(Br)cc(Br)c2c1C(=Cc1ccc(O)c(O)c1)C(=O)N2 [10719/H03] | 25.1 |
| COc1ccc(C=C2C(=O)Nc3c(Br)cc(Br)c(C)c32)c(OC)c1 [10719/H04] | −0.5 |
| CCc1c(C)[nH]c(C=C2C(=O)Nc3c(Br)cc(Br)c(C)c32)c1C [10719/H05] | 7.9 |
| COc1cc(OC)c(C=C2C(=O)Nc3c(Br)cc(Br)c(C)c32)c(OC)c1 [10719/H06] | −28.0 |
| CCN(CC)c1ccc(C=C2C(=O)Nc3c(Br)cc(Br)c(C)c32)c(O)c1 [10734/H05] | 4.7 |
| Cc1c(Br)cc(Br)c2c1C(=Cc1ccc([N+](=O)[O-])cc1)C(=O)N2 [10734/H06] | −32.2 |
| Cc1c(Br)cc(Br)c2c1C(=Cc1cc(Br)cc(Br)c1O)C(=O)N2 [10734/H07] | 6.6 |
| Cc1c(Br)cc(Br)c2c1C(=Cc1cccc(F)c1O)C(=O)N2 [10734/H08] | 2.9 |
| Cc1c(Br)cc(Br)c2c1C(=Cc1ccc(O)c(Br)c1)C(=O)N2 [10734/H09] | −4.2 |
| Cc1c(Br)cc(Br)c2c1C(=Cc1ccc(C(C)(C)C)cc1)C(=O)N2 [10734/H10] | −12.6 |
| Cc1c(Br)cc(Br)c2c1C(=Cc1ccc(Br)s1)C(=O)N2 [10734/H11] | −8.5 |
| Cc1ccccc1C=C1C(=O)Nc2c(Br)cc(Br)cc21 [10735/A02] | 14.3 |
| O=C1Nc2c(Br)cc(Br)cc2C1=Cc1ccc(F)c(F)c1 [10735/A03] | 28.8 |
| O=C1Nc2c(Br)cc(Br)cc2C1=Cc1cc(F)cc(F)c1 [10735/A04] | 5.0 |
| O=C1Nc2c(Br)cc(Br)cc2C1=Cc1cccc(C(F)(F)F)c1 [10735/A05] | 41.5 |
| O=C1Nc2c(Br)cc(Br)cc2C1=Cc1cc(C(F)(F)F)cc(C(F)(F)F)c1 [10735/A06] | 24.9 |
| N#Cc1ccccc1C=C1C(=O)Nc2c(Br)cc(Br)cc21 [10735/A07] | 18.7 |
| O=C1Nc2c(Br)cc(Br)cc2C1=Cc1c(F)cccc1F [10735/A08] | 10.9 |
| O=C1Nc2c(Br)cc(Br)cc2C1=Cc1cccc2ccccc12 [10735/A09] | 13.0 |
| O=C1Nc2c(Br)cc(Br)cc2C1=Cc1ccc(Cl)cc1Cl [10735/A10] | 10.2 |
| O=C1Nc2c(Br)cc(Br)cc2C1=Cc1ccc(-c2ccccc2)cc1 [10735/A11] | 3.3 |
| Cc1ccccc1C=C1C(=O)Nc2ccc(I)cc21 [10735/B02] | 39.1 |

| SMILES | Biochem EGFR % Inhibition (P.167) [%] |
| --- | --- |
| O=C1Nc2ccc(I)cc2C1=Cc1ccc(F)c(F)c1 [10735/B03] | 42.9 |
| O=C1Nc2ccc(I)cc2C1=Cc1cc(F)cc(F)c1 [10735/B04] | 49.2 |
| O=C1Nc2ccc(I)cc2C1=Cc1cccc(C(F)(F)F)c1 [10735/B05] | 61.6 |
| O=C1Nc2ccc(I)cc2C1=Cc1cc(C(F)(F)F)cc(C(F)(F)F)c1 [10735/B06] | 49.4 |
| N#Cc1ccccc1C=C1C(=O)Nc2ccc(I)cc21 [10735/B07] | 47.7 |
| O=C1Nc2ccc(I)cc2C1=Cc1c(F)cccc1F [10735/B08] | 24.5 |
| O=C1Nc2ccc(I)cc2C1=Cc1cccc2ccccc12 [10735/B09] | 39.8 |
| O=C1Nc2ccc(I)cc2C1=Cc1ccc(Cl)cc1Cl [10735/B10] | 30.1 |
| O=C1Nc2ccc(I)cc2C1=Cc1ccc(-c2ccccc2)cc1 [10735/B11] | 52.4 |
| Cc1ccccc1C=C1C(=O)Nc2ccc(Br)c(C)c21 [10735/C02] | 1.6 |
| Cc1c(Br)ccc2c1C(=Cc1ccc(F)c(F)c1)C(=O)N2 [10735/C03] | 8.0 |
| Cc1c(Br)ccc2c1C(=Cc1cc(F)cc(F)c1)C(=O)N2 [10735/C04] | 5.8 |
| Cc1c(Br)ccc2c1C(=Cc1cccc(C(F)(F)F)c1)C(=O)N2 [10735/C05] | 14.5 |
| Cc1c(Br)ccc2c1C(=Cc1cc(C(F)(F)F)cc(C(F)(F)F)c1)C(=O)N2 [10735/C06] | 8.5 |
| Cc1c(Br)ccc2c1C(=Cc1ccccc1C#N)C(=O)N2 [10735/C07] | −4.9 |
| Cc1c(Br)ccc2c1C(=Cc1c(F)cccc1F)C(=O)N2 [10735/C08] | −11.3 |
| Cc1c(Br)ccc2c1C(=Cc1cccc3ccccc13)C(=O)N2 [10735/C09] | −22.1 |
| Cc1c(Br)ccc2c1C(=Cc1ccc(Cl)cc1Cl)C(=O)N2 [10735/C10] | −14.4 |
| Cc1c(Br)ccc2c1C(=Cc1ccc(-c3ccccc3)cc1)C(=O)N2 [10735/C11] | −6.4 |
| CNS(=O)(=O)c1ccc2c(c1)C(=Cc1ccccc1C)C(=O)N2 [10735/D02] | 20.3 |
| CNS(=O)(=O)c1ccc2c(c1)C(=Cc1ccc(F)c(F)c1)C(=O)N2 [10735/D03] | 7.5 |
| CNS(=O)(=O)c1ccc2c(c1)C(=Cc1cc(F)cc(F)c1)C(=O)N2 [10735/D04] | 3.8 |
| CNS(=O)(=O)c1ccc2c(c1)C(=Cc1cccc(C(F)(F)F)c1)C(=O)N2 [10735/D05] | 23.0 |
| CNS(=O)(=O)c1ccc2c(c1)C(=Cc1cc(C(F)(F)F)cc(C(F)(F)F)c1)C(=O)N2 [10735/D06] | 8.0 |
| CNS(=O)(=O)c1ccc2c(c1)C(=Cc1ccccc1C#N)C(=O)N2 [10735/D07] | −17.6 |
| CNS(=O)(=O)c1ccc2c(c1)C(=Cc1c(F)cccc1F)C(=O)N2 [10735/D08] | −1.5 |

| SMILES | Biochem EGFR % Inhibition (P.167) [%] |
| --- | --- |
| CNS(=O)(=O)c1ccc2c(c1)C(=Cc1cccc3ccccc13)C(=O)N2 [10735/D09] | −0.3 |
| CNS(=O)(=O)c1ccc2c(c1)C(=Cc1ccc(Cl)cc1Cl)C(=O)N2 [10735/D10] | 46.5 |
| CNS(=O)(=O)c1ccc2c(c1)C(=Cc1ccc(-c3ccccc3)cc1)C(=O)N2 [10735/D11] | −16.5 |
| Cc1ccccc1C=C1C(=O)Nc2ccc(S(=O)(=O)Nc3ccc(C(F)(F)F)cc3)cc21 [10735/E02] | 16.7 |
| O=C1Nc2ccc(S(=O)(=O)Nc3ccc(C(F)(F)F)cc3)cc2C1=Cc1ccc(F)c(F)c1 [10735/E03] | 18.9 |
| O=C1Nc2ccc(S(=O)(=O)Nc3ccc(C(F)(F)F)cc3)cc2C1=Cc1cc(F)cc(F)c1 [10735/E04] | 14.3 |
| O=C1Nc2ccc(S(=O)(=O)Nc3ccc(C(F)(F)F)cc3)cc2C1=Cc1cccc(C(F)(F)F)c1 [10735/E05] | 30.6 |
| O=C1Nc2ccc(S(=O)(=O)Nc3ccc(C(F)(F)F)cc3)cc2C1=Cc1cc(C(F)(F)F)cc(C(F)(F)F)c1 [10735/E06] | 8.7 |
| N#Cc1ccccc1C=C1C(=O)Nc2ccc(S(=O)(=O)Nc3ccc(C(F)(F)F)cc3)cc21 [10735/E07] | 27.4 |
| O=C1Nc2ccc(S(=O)(=O)Nc3ccc(C(F)(F)F)cc3)cc2C1=Cc1c(F)cccc1F [10735/E08] | 10.2 |
| O=C1Nc2ccc(S(=O)(=O)Nc3ccc(C(F)(F)F)cc3)cc2C1=Cc1cccc2ccccc12 [10735/E09] | −3.9 |
| O=C1Nc2ccc(S(=O)(=O)Nc3ccc(C(F)(F)F)cc3)cc2C1=Cc1ccc(Cl)cc1Cl [10735/E10] | 19.1 |
| O=C1Nc2ccc(S(=O)(=O)Nc3ccc(C(F)(F)F)cc3)cc2C1=Cc1ccc(-c2ccccc2)cc1 [10735/E11] | 10.1 |
| Cc1ccccc1C=C1C(=O)Nc2ccc(S(=O)(=O)N3CCOCC3)cc21 [10735/F02] | 19.8 |
| O=C1Nc2ccc(S(=O)(=O)N3CCOCC3)cc2C1=Cc1ccc(F)c(F)c1 [10735/F03] | 19.1 |
| O=C1Nc2ccc(S(=O)(=O)N3CCOCC3)cc2C1=Cc1cc(F)cc(F)c1 [10735/F04] | 10.6 |
| O=C1Nc2ccc(S(=O)(=O)N3CCOCC3)cc2C1=Cc1cccc(C(F)(F)F)c1 [10735/F05] | 5.5 |
| O=C1Nc2ccc(S(=O)(=O)N3CCOCC3)cc2C1=Cc1cc(C(F)(F)F)cc(C(F)(F)F)c1 [10735/F06] | 13.0 |
| N#Cc1ccccc1C=C1C(=O)Nc2ccc(S(=O)(=O)N3CCOCC3)cc21 [10735/F07] | 28.9 |
| O=C1Nc2ccc(S(=O)(=O)N3CCOCC3)cc2C1=Cc1c(F)cccc1F [10735/F08] | 9.4 |
| O=C1Nc2ccc(S(=O)(=O)N3CCOCC3)cc2C1=Cc1cccc2ccccc12 [10735/F09] | 0.0 |
| O=C1Nc2ccc(S(=O)(=O)N3CCOCC3)cc2C1=Cc1ccc(Cl)cc1Cl [10735/F10] | 15.7 |
| O=C1Nc2ccc(S(=O)(=O)N3CCOCC3)cc2C1=Cc1ccc(-c2ccccc2)cc1 [10735/F11] | 14.8 |
| Cc1ccccc1C=C1C(=O)Nc2ccc(CCCl)cc21 [10735/G02] | 23.7 |
| O=C1Nc2ccc(CCCl)cc2C1=Cc1ccc(F)c(F)c1 [10735/G03] | 30.3 |
